Reference: the METLIN SMRT retention time set (Domingo-Almenara et al. 2019)

Experiment: gradient 5% acetonitrile 3 min, to 50% in 2 min, to 85% in 15 min, held 3 min, 100 µL/min
Settings: column: Zorbax Extend-C18 2.1 x 50 mm; eluents: water / acetonitrile, 0.1% formic acid
How it was run: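 Standards, all pure, were combined into mixtures of ~100 molecules and run at 100 μL/min on a Zorbax Extend-C18 column (2.1 × 50 mm, 1.8 μm) with water and acetonitrile, each containing 0.1% formic acid. A coupled quadrupole time-of-flight mass spectrometer operated in positive and negative ionization mode. Retention time values come from computationally picked adduct peaks, each inspected manually.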

With `Cc1ccc2c(c1)N(Cc1ccc(F)cc1)N=C(C(=O)N1CCC(C)CC1)S2(=O)=O` the RP-LC retention time was 1060 s.

`O=S(=O)(c1ccccc1Br)N1CCc2nc(-c3ccccc3)ncc2C1` showed an RP-LC retention time of 1090 s.

Work on `Cc1ccc(CNC(=O)N2CCC(c3cc(N)on3)CC2)cc1` yielded an RP-LC retention time of 692 s.

With `CCn1cc(CCNC(=O)c2ccccc2C(F)(F)F)c2cccnc21` the RP-LC retention time was 740 s.

Work on `COc1ccccc1NC(=O)CN1c2ccc(F)cc2-c2ccccc2S1(=O)=O` yielded an RP-LC retention time of 1000 s.

In the case of `CCCC(=O)Nc1ccc(-n2cnc(C(=O)NC3CCCC3)c2)nc1`, the RP-LC retention time is reported as 726 s.

`COc1ccc2cccc(NC(=O)c3ccco3)c2n1` showed an RP-LC retention time of 1010 s.

Work on `COc1ccc(S(=O)(=O)N2C[C@H]3CN(S(=O)(=O)c4ccccc4)C[C@@H](C2)O3)cc1` yielded an RP-LC retention time of 893 s.

In the case of `CCc1cc(N2CCN(C(=O)c3ccccc3)CC2)nc2nnc(C)n12`, the RP-LC retention time is reported as 604 s.

In the case of `O=C(C1=NN(Cc2ccccc2F)c2cc(Cl)ccc2S1(=O)=O)N1CCOCC1`, the RP-LC retention time is reported as 833 s.

In the case of `CCN(CC)CCNC(=O)c1c(-c2ccccc2)c(-c2ccccc2)nn(CC)c1=O`, the RP-LC retention time is reported as 666 s.

With `CC1=C(c2ccc(C)cc2)S(=O)(=O)N=C1N1CCCN(C(=O)c2ccccc2)CC1` the RP-LC retention time was 837 s.

Molecule `O=C(C1=CN(c2ccccc2)c2cc(F)ccc2S1(=O)=O)N1CCCCC1` has an RP-LC retention time of 882 s.

In the case of `CCn1cc(-c2nc(C)c(C(=O)Nc3ccc(OC)cc3OC)s2)c2cccnc21`, the RP-LC retention time is reported as 1050 s.

`O=C(Cc1csc(NC(=O)NC2CCCCC2)n1)NCCc1ccc(Cl)cc1` showed an RP-LC retention time of 805 s.

Molecule `CC(C)[Si]1(C(C)C)OCC2OC(n3cnc4c(N)ncnc43)C(N)C2O[Si](C(C)C)(C(C)C)O1` (stereo unspecified) has an RP-LC retention time of 828 s.

`Cc1cc(F)ccc1NS(=O)(=O)c1cc(-c2cc(C(F)(F)F)on2)sc1C` showed an RP-LC retention time of 1160 s.

In the case of `COCCNC(=O)C1CN(S(=O)(=O)c2ccccc2)CC12CCCCC2` (stereo unspecified), the RP-LC retention time is reported as 811 s.

With `Cn1c(CCc2cccc(NC(=O)C3CCN(S(=O)(=O)N4CCCC4)CC3)c2)nc2ccccc21` the RP-LC retention time was 672 s.

`CC1CCC(NC(=O)CN2C(=O)C(C(=O)N3CCCCC3)Sc3ccccc32)CC1` (stereo unspecified) gave an RP-LC retention time of 1090 s.

For `CCOc1ccc(-c2noc(Cn3ccn4nc(-c5ccc(F)cc5)cc4c3=O)n2)cc1OC`, the RP-LC retention time was 819 s.

`CCN1C(=O)COc2ccc(-c3noc(-c4ccc(C)cc4)n3)cc21` showed an RP-LC retention time of 1230 s.

`COc1cccc(Cn2cnc3c(-c4ccc(F)cc4)csc3c2=O)c1` gave an RP-LC retention time of 1050 s.

`O=C(c1ccc(-c2ccnc(N3CCCCC3)n2)cc1)N1CCC2(CC1)OCCO2` showed an RP-LC retention time of 882 s.

`CC(C)c1cc(N2CCN(C(=O)c3ccccc3)CC2)nc2nncn12` gave an RP-LC retention time of 594 s.

`CC(C)(C)C1=NN=C2c3ccccc3C(=O)C21` (stereo unspecified) gave an RP-LC retention time of 852 s.

For `COc1ccc(NC(=O)Cn2nc3cc(-c4ccccc4)nc(C)n3c2=O)cc1OC`, the RP-LC retention time was 830 s.

`COC(=O)c1ccccc1NC(=O)CCc1c(-c2ccc(F)cc2)nc2ccccn12` showed an RP-LC retention time of 724 s.

Work on `O=C(c1cn2c(n1)CSCC2)N1CCC(Cc2ccccc2)CC1` yielded an RP-LC retention time of 720 s.

With `CCCCn1cc(S(=O)(=O)Nc2cccc(F)c2)c2cccnc21` the RP-LC retention time was 936 s.

Molecule `CCn1cc(-c2nc(C)c(C(=O)NCc3ccc(C)o3)s2)c2cccnc21` has an RP-LC retention time of 912 s.

In the case of `CCOc1ccc(-c2noc(N3CCC(C(=O)N4CCCCC4)CC3)n2)cc1OC`, the RP-LC retention time is reported as 889 s.

`COc1ccc(N2CC(c3noc(-c4cc(Cl)ccc4OC)n3)CC2=O)cc1` (stereo unspecified) showed an RP-LC retention time of 963 s.

`COCCn1cc(CCNC(=O)Nc2ccccc2C)c2cccnc21` showed an RP-LC retention time of 694 s.

For `O=C(NCc1ccc(F)cc1)C1CCCN(S(=O)(=O)c2c[nH]c(C(=O)N3CCCCCC3)c2)C1` (stereo unspecified), the RP-LC retention time was 838 s.

Work on `CCCNc1cc(N2CCC(CCC(=O)N3CCN(c4ccccc4)CC3)CC2)ncn1` yielded an RP-LC retention time of 603 s.

Molecule `CC(=O)N1c2ccc(S(=O)(=O)N3CCCCC3)cc2CC1C(=O)NCc1ccc(N(C)C)cc1` (stereo unspecified) has an RP-LC retention time of 879 s.

In the case of `Cc1csc(-c2ccc(N3CCN(C(=O)c4ccc(F)cc4)CC3)nc2)n1`, the RP-LC retention time is reported as 820 s.

Molecule `CCc1cc(=O)n(CC(=O)NCc2ccc(F)cc2F)c(N)n1` has an RP-LC retention time of 812 s.

Work on `CCc1noc(NC(C)=O)c1-c1ccc(C)c(S(=O)(=O)Nc2ccc(C)cc2Br)c1` yielded an RP-LC retention time of 919 s.

For `COc1ccc(-c2nnc(-c3cccnc3N3CCN(c4ccc(C)cc4)CC3)o2)cc1`, the RP-LC retention time was 1060 s.

`CCCOc1ccc2nc(NC(=O)OC)[nH]c2c1` gave an RP-LC retention time of 652 s.

With `CCCC(=O)Nc1ccc(C(=O)Nc2nc(-c3ccccc3)cs2)cc1` the RP-LC retention time was 912 s.

`COc1ccc(CCNC(=O)Cn2ccc3ccc(-c4nnc(C)o4)cc32)cc1OC` gave an RP-LC retention time of 715 s.

In the case of `Cc1sc(-c2cc(C(F)(F)F)[nH]n2)cc1S(=O)(=O)N1CCN(c2ccccc2F)CC1`, the RP-LC retention time is reported as 1170 s.

`CCNc1cc(N2CCCC(CCC(=O)Nc3ccccc3)C2)ncn1` (stereo unspecified) gave an RP-LC retention time of 669 s.

Work on `CC(C)N1CCC(c2nnc3n2CCN(S(=O)(=O)c2ccc(C(F)(F)F)cc2)C3)C1` (stereo unspecified) yielded an RP-LC retention time of 650 s.

In the case of `O=C(c1cccnn1)N1CC(F)(F)C[C@H]1c1nnc(-c2ccccc2)o1`, the RP-LC retention time is reported as 746 s.

For `Cc1ccc(C(=O)Nc2cccc(OCc3nnc(-c4ccc(Cl)cc4)o3)c2)s1`, the RP-LC retention time was 1100 s.

`O=C(c1ccc(=O)oc1)N1CCN(Cc2nc(-c3ccccc3)cs2)CC1` showed an RP-LC retention time of 637 s.

Work on `Cc1ccc(NC(=O)C2CCN(C(=O)c3ncn4c3COC(c3ccc(F)cc3)C4)CC2)cc1F` (stereo unspecified) yielded an RP-LC retention time of 854 s.

Molecule `Cc1cccc(NC(=O)N2CCC(c3nc(C(=O)N(C)C)c(C)o3)CC2)c1` has an RP-LC retention time of 689 s.

For `Cc1ccc(CN2CCCn3nc(C(=O)NCc4ccc(C)o4)cc3C2=O)cc1`, the RP-LC retention time was 875 s.

In the case of `Cc1cnc(C(=O)N2CC(n3cc(COc4ccc(F)cc4)nn3)C2)cn1`, the RP-LC retention time is reported as 731 s.

Work on `O=C1NC2(CCN(C(=O)c3ccc(F)cc3)CC2)Nc2cc(Cl)ccc21` yielded an RP-LC retention time of 742 s.

`Cc1nc(NC(=O)Cc2c(C)[nH]c(=O)[nH]c2=O)sc1C(=O)Nc1ccccc1` showed an RP-LC retention time of 617 s.

Work on `CCOc1ccc(-n2ccn3cc(-c4ccc(F)cc4)nc3c2=O)cc1` yielded an RP-LC retention time of 860 s.

`Cc1ccc(N2C(=O)C3N=NN(Cc4nc(-c5ccc(OC(C)C)cc5)no4)C3C2=O)cc1` (stereo unspecified) gave an RP-LC retention time of 1110 s.

In the case of `CCc1nc(OCC(=O)Nc2ccc(Br)cc2F)c2ccccc2n1`, the RP-LC retention time is reported as 910 s.

Work on `Cc1sc2ncnc(N3CCCCC3)c2c1C(=O)NCc1cc(F)ccc1F` yielded an RP-LC retention time of 1020 s.

Work on `CCN(CC)C(=O)c1cnc2snc(C)c2c1N1CCC(C(=O)Nc2cc(F)ccc2F)CC1` yielded an RP-LC retention time of 940 s.

Work on `CCOC(=O)C1=C(C)NC2=C(C(=O)c3ccccc32)C1c1cccc(OC)c1` (stereo unspecified) yielded an RP-LC retention time of 988 s.

`CCOC(=O)c1ccc(NC(=O)C2CCN(S(=O)(=O)c3ccc4[nH]c(=O)ccc4c3)CC2)cc1` showed an RP-LC retention time of 783 s.

In the case of `Cc1nc2cc(-c3noc(C4CC(=O)N(c5ccccc5)C4)n3)ccc2n(C2CCCC2)c1=O` (stereo unspecified), the RP-LC retention time is reported as 1030 s.

With `COc1cc(CCC(=O)Nc2c(C(=O)N3CCN(c4ccccn4)CC3)oc3ccccc23)on1` the RP-LC retention time was 642 s.

Work on `Cc1ccc2ncn(C3CCN(C(=O)Nc4ccc(C)c(C)c4)CC3)c(=O)c2c1` yielded an RP-LC retention time of 799 s.

In the case of `O=C(NCc1ccco1)C1CCN(c2ncccc2-c2nc(-c3ccccc3)no2)CC1`, the RP-LC retention time is reported as 964 s.

For `CNC(=O)C1CCCN(c2nc3ncn(CC(=O)Nc4ccccc4F)c(=O)c3s2)C1` (stereo unspecified), the RP-LC retention time was 634 s.

`CC(C)N1C(=O)C(C)(C(=O)Nc2ccc(F)c(F)c2)Oc2cccnc21` (stereo unspecified) showed an RP-LC retention time of 1030 s.

`CCOc1ccc(-c2[nH]nc3nc(-c4cccc(F)c4)cc(C(=O)O)c23)cc1` showed an RP-LC retention time of 843 s.

Molecule `COc1ccc(-n2c(=O)n(C)c(=O)c3cc(C(=O)Nc4cc(F)ccc4C)cnc32)cc1` has an RP-LC retention time of 893 s.

With `COc1cccc(NS(=O)(=O)c2cc3n(c2)CCN(C)C3=O)c1` the RP-LC retention time was 674 s.

With `Cc1cc(S(=O)(=O)N(C)CC2CCOCC2)ccc1Cl` the RP-LC retention time was 963 s.

With `CCc1ccc(C(=O)N2CCN(c3nnc4cccc(C)n34)CC2)cc1` the RP-LC retention time was 691 s.

Work on `O=C(NC(c1ccccc1)c1nnc(N2CCOCC2)o1)c1ccc2c(c1)OCO2` (stereo unspecified) yielded an RP-LC retention time of 726 s.

In the case of `CCC(=O)Nc1ccc(-n2cnc(C(=O)N3CCN(c4cccc(C)c4C)CC3)c2)nc1`, the RP-LC retention time is reported as 855 s.

Molecule `CCc1ccc(NC(=O)N2CCc3cn(CC)c4cccc(c34)C2)cc1` has an RP-LC retention time of 1060 s.

With `Cc1c(C(=O)NC2CC2)cnn1-c1ccc(SCc2ccccc2)nn1` the RP-LC retention time was 866 s.

For `Cc1cccc(NC(=O)Cn2cnc3c(c2=O)CCCC3)c1`, the RP-LC retention time was 706 s.

`CC(=O)N(Cc1nn(C)c2c1CN(S(=O)(=O)c1cc(C)ccc1C)CC2)c1ccccc1` gave an RP-LC retention time of 856 s.

With `CCc1cccc(NC(=O)Nc2ccc3nncn3c2)c1` the RP-LC retention time was 747 s.

In the case of `Cc1ccc(CN2N=C(C(=O)N3CCOCC3)S(=O)(=O)c3cc(Cl)ccc32)cc1`, the RP-LC retention time is reported as 896 s.

`CCc1nc(-c2csc(S(=O)(=O)N3CCC(C(=O)Nc4ccc(C)cn4)CC3)c2)no1` showed an RP-LC retention time of 799 s.

Work on `CCCCOc1ccc(NC(=O)c2oc3cc(C)ccc3c2C)c2cccnc12` yielded an RP-LC retention time of 946 s.

In the case of `CC1=C(c2ccc(Cl)cc2)S(=O)(=O)N=C1N1CCCN(C(=O)CC(C)(C)C)CC1`, the RP-LC retention time is reported as 944 s.

In the case of `CCC(=O)N1c2ccc(S(=O)(=O)N3CCCCC3)cc2CC1C(=O)NCc1ccccc1C` (stereo unspecified), the RP-LC retention time is reported as 916 s.
